Reference: patent publication US20250082674A1, “METHODS OF TREATING COPPER METABOLISM-ASSOCIATED DISEASES OR DISORDERS” (priority 2021, published 2025)

System: ^64CuCl2 (^64Cu) intestinal absorption and hepatic copper uptake
Assay: Example 2: Copper Absorption study, oral 64Cu PET-CT in healthy subjects
Format: in vivo, human
Details: healthy subjects; for mean SUV liver / hepatic uptake of labeled copper, comparison between treatments: 1 hour and 15 hours after oral 64Cu; for reduction of mean hepatic copper uptake: 1 hr scan post treatment, oral 64Cu, 7 days treatment
Protocol: Blood was collected at several time points to assess plasma copper kinetics. The study was carried out as a randomized, placebo-controlled intervention study. […] The study assessed the previously listed organs and the effect of anti-copper treatment by comparing the mean standard uptake value (SUV) in the organs of interest. […] The dynamic baseline scans and the subsequent static scans were compared across all treatments.

Compound | mean SUV liver / hepatic uptake of labeled copper, comparison between treatments | reduction of mean hepatic copper uptake
CC(C)(S)[C@@H](N)C(=O)O [penicillamine, (2S)-2-amino-3-methyl-3-sulfanylbutanoic acid, reference compound] | not different from placebo | approximately 25%
NCCNCCNCCN [trientine, N′-[2-(2-aminoethylamino)ethyl]ethane-1,2-diamine, reference compound] | significantly lower than with penicillamine | ~50%
